Assay: Inhibition of HIV1 gp41- induced cell-cell fusion between viral envelope expressed in human HL2/3 cells to CD4/CCR5 receptor expressed TZM-bl cells after 6 hrs by luciferase assay

| IC50 [µM] | Substance |
| --- | --- |
| 0.0025 | H-YTSLIHSLIEEQNQQEKNEQELLELDKWALWNWF-OH |
| 0.082 | H-RIQQIEQKIHHIEQRIQQIEQRISGIVQQQNNLLRIEAQQHLLQLTVWGIKQLQARIL-OH |
| 0.039 | H-RIQQIEQKIHHIEQRIQQIEQRIEAQQHLLQLTVWGIKQLQARIL-OH |
| 0.251 | H-RIQQIEQKIHHIEQRIQQIEQLLQLTVWGIKQLQARIL-OH |
